According to US5486532A, “Benzospiroalkenes” (Adir et Compagnie, priority 1993, dated 1996):

Assays:
[1] = system: arterial pressure in amyelated rats; assay: In vivo study in amyelated rats, arterial pressure; parameters: species or system Sprague Dawley rats; conditions: Rattus norvegicus, iv, tertatolol pretreated, no prazosin or yohimbine, read-out: C20 Control (concentration which increases the pressure by 20 mmHg)
Description: (§1) Male Sprague Dawley rats (300-400 g) are anesthetized with ether. The trachea is cannulated, the spinal column is destroyed using a stainless-steel rod and the animal is 1. 5 immediately placed under artificial respiration. The vagus nerves are dissected. The carotid arteries are ligatured and a catheter is placed in one and serves to record the arterial pressure. Three other catheters are placed in the jugular veins and in the vein of the penis and serve for the injections. The temperature of the animals is maintained at 36° C. The animal is pretreated by an injection of tertatolol […]. The animal is also pretreated 10 minutes later with prazosin ([…]) or yohimbine (1 mg/kg) when it is desired to determine the alpha1 - or alpha2-adrenergic properties of the product. Ten minutes later, increasing cumulative doses of product are injected every 20 seconds. The variations in arterial pressure are detected using a Statham P23XL pressure cell and are recorded. The pressure values are expressed in mmHg. This experiment makes it possible to calculate the concentration which increases the pressure by 20 mmHg (C20) by non-linear regression according to the mass action law model of Michaelis and Menten as described above. The maximum effect obtained is subsequently convened to a percentage relative to the maximum effect induced by phenylephrine. The alpha1 - or alpha2-adrenergic components of the product are evaluated using the C20 ratio obtained in the presence of prazosin or yohimbine on the values obtained in the absence of these antagonists. In amyelated rats, the products of the invention produce hypertensions which are sensitive to prazosin and to yohimbine.

dog femoral arteries = assay: Contraction of isolated dog femoral arteries; conditions: Canis lupus familiaris; for EC50: dog femoral artery rings, cumulative doses; for Emax: maximum contraction relative to 100 mM KCl, dog femoral artery, read-out: ARTERY Max
Method: (§2) The technique used is based on that described by Fowler et al. (J. Pharmacol. Exp. Ther., 229, 712-718, 1984). Male or female mongrel dogs of approximately 15-25 kg were used as organ sources. The animals are anesthetized with pentobarbital (30 mg/kg intravenously). The legs are incized and the blood vessels removed. They are placed in Krebs-Ringer liquid (118 mM NaCl; 25 mM NaHCO3; 10 mM Glucose; 4.7 mM KCl; 1.25 mM CaCl2; 1.19 mM MgSO4; 1.14 mM KH2 PO4) at room temperature and under a sparge of carbogen (95% O2, 5% CO2). These blood vessels are then carefully freed of their fat and then cut into rings 2 mm wide and mounted under a base tension of 4 g (femoral arteries) or 1 g (saphena veins) in tanks thermostated at 37° C. containing Krebs-Ringer liquid and constantly sparged with carbogen. A lower hook constitutes the fixed point, whereas the upper hook is connected to an isometric force sensor. The variations in tension are digitized, stored on disk and processed by an information technology system. After mounting, the organs are left to rest for 90 minutes, with rinses being carried out every 30 min. After readjustment of the base tension, a contraction is induced by a single dose of KCl (100 mM). After stabilization, washing and returning to the base line, a contraction is provoqued by a single dose of phenylephrine (submaximal concentration) in order to regulate the following contractions. After washing and returning to the baseline, an effect/concentration curve is produced by addition of cumulative doses of agonist (the space between the doses is a semi-log). This experiment makes it possible to calculate the 50% effective concentration (EC50) in the following way: the tension values are first of all converted to percentages relative to the maximum effect induced by 100 mM of KCl. This EC50 is determined by non-linear regression by the SIMPLEX method (M. S. Caceci, Byte, 340-362, 1984), calculated according to the mass action law model of L. Michaelis and M. L. Menten (Biochem. Zeitschrift, 49, 333-369, 1913).
(§3) E=(Emax*C^n)(EC^n +C^n) with E=effect; Emax=maximum effect; C=concentration; EC=EC50; n=Hill number
(§4) The products of the invention contract dog arteries and veins. The maximum for these contractions approaches that obtained with KCl.

alpha1-adrenergic = assay: Amyelated rats, alpha1-adrenergic component (C20 ratio with prazosin); format: in vivo, Sprague Dawley rats; conditions: pretreated with prazosin
Description: as §1

alpha2-adrenergic = assay: Amyelated rats, alpha2-adrenergic component (C20 ratio with yohimbine); format: in vivo, Sprague Dawley rats; conditions: pretreated with yohimbine (1 mg/kg)
Description: as §1

saphena veins = assay: Contraction of isolated dog saphena veins; conditions: Canis lupus familiaris; for EC50: dog saphena vein rings, cumulative doses; for Emax: maximum contraction relative to 100 mM KCl, dog saphena vein, read-out: VEIN Max
Method: as §2, §3, §4

| Structure (SMILES) | ED (20 mmHg) [1] [µg/kg] | EC50 (dog femoral arteries) [nM] | Emax (dog femoral arteries) [%] | Ratio treated C20 / control C20, Prazosin (alpha1-adrenergic) | Ratio treated C20 / control C20, Yohimbine (alpha2-adrenergic) | EC50 (saphena veins) [nM] | Emax (saphena veins) [%] |
| --- | --- | --- | --- | --- | --- | --- | --- |
| Clc1cccc2c1CC1(CC2)CNC=N1 (centres unmarked) [Example 1, Spiro[(1,3-diazacyciopent-1-ene)-5:2'-(8'-chloro-1', 2',3',4'-tetrahydronaphthalene)]fumarate] | 0.2 | 1000 | 94 | 1.9 | 6.0 | 200 | 95 |
| Clc1cccc2c1CC1(CC2)CNC=N1 (single isomer, unassigned) [Example 6, Spiro[(1,3-diazacyclopent-1-ene)-5:2'-(8'-chloro-1',2',3', 4'-tetrahydronaphthalene)]L-(+)-tartrate, αisomer] | 0.1 | 2000 | 91 | 1.7 | 4.0 | 7000 | 96 |
